What follows are molecules tested against T1, purified human HDAC6 (Homo sapiens, UniProt Q9UBN7) (assay: HDAC6 Enzyme Assay). Details: compound concentration 0.37 μM, read-out: Percent Inhibition.
T1 construct: purchased BPS Bioscience 5006
T1 sequence (Q9UBN7 1-1215): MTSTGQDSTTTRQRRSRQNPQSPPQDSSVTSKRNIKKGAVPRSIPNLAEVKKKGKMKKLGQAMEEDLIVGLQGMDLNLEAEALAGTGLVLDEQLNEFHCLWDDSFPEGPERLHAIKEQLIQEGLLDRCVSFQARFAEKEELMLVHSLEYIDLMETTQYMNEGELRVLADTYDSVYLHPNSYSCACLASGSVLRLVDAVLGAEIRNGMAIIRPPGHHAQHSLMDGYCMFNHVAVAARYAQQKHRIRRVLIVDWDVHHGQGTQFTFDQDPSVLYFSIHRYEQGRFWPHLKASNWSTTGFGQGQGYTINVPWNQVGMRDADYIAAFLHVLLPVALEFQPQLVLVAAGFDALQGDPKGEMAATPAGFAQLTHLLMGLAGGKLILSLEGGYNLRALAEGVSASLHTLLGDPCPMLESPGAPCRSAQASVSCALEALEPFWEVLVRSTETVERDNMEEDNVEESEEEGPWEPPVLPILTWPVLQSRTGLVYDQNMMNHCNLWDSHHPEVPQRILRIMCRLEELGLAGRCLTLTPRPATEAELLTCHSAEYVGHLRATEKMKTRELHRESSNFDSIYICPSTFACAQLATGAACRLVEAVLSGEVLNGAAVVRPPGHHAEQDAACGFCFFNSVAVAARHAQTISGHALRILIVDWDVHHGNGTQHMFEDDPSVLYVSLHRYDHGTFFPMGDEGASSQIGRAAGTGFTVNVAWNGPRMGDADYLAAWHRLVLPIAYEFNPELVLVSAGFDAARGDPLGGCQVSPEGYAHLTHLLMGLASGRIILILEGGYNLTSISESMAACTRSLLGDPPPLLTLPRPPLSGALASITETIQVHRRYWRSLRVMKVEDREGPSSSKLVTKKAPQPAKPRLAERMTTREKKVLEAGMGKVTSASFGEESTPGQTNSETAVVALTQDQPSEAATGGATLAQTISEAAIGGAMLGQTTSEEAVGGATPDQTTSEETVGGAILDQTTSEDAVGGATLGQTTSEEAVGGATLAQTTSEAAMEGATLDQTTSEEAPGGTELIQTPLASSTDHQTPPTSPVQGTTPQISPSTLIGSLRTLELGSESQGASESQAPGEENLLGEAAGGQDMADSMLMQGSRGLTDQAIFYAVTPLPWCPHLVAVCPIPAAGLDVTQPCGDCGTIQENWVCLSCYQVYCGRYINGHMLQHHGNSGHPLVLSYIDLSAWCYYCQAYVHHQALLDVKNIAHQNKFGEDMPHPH
Assay type: biochemical
Outline: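 Readout is AMC fluorescence (Ex 340 nm, Em 460 nm) after trypsin cleavage of the deacetylated Ac-Arg-Gly-Lys(Ac)-AMC product. Reaction: purified human HDAC6, compound or vehicle, 1 hour, 30° C, quenched by trichostatin A. Single-concentration percent inhibition or IC50 calculated versus DMSO-treated samples.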
`O=C(NO)c1ccc2ccn(CCc3cccc(C4CCNCC4)c3)c(=O)c2c1` [Compound I-324, N-hydroxy-1-oxo-2-[2-(3-piperidin-4-ylphenyl)ethyl]-1,2-dihydroisoquinoline-7-carboxamide] was tested, and the inhibition at 0.37 µM was 91.2%. `COc1ccc(-c2cccc(CCn3cnc4ccc(C(=O)NO)cc4c3=O)c2)cc1` [Compound I-303, N-hydroxy-3-[2-(4′-methoxybiphenyl-3-yl)ethyl]-4-oxo-3,4-dihydroquinazoline-6-carboxamide] showed an inhibition at 0.37 µM of 93.3%. `NCCCn1ccc2ccc(C(=O)NO)cc2c1=O` [Compound I-173, 2-(3-aminopropyl)-N-hydroxy-1-oxo-1,2-dihydroisoquinoline-7-carboxamide] showed an inhibition at 0.37 µM of 75.4%. Work on `COc1cccc(-c2cccc(CCn3cnc4ccc(C(=O)NO)cc4c3=O)c2)c1` [Compound I-339, N-hydroxy-3-[2-(3′-methoxybiphenyl-3-yl)ethyl]-4-oxo-3,4-dihydroquinazoline-6-carboxamide] yielded an inhibition at 0.37 µM of 89.9%. `O=C(NO)c1ccc2c(=O)[nH]c(C3CCCC3)nc2c1` [Compound I-420, 2-cyclopentyl-N-hydroxy-4-oxo-3,4-dihydroquinazoline-7-carboxamide] gave an inhibition at 0.37 µM of 85.3%. In the case of `CC1(C(=O)Nc2cccc(Cn3ccc4ccc(C(=O)NO)cc4c3=O)c2)CCNCC1` [Compound I-215, N-hydroxy-2-(3-{[(4-methylpiperidin-4-yl)carbonyl]amino}benzyl)-1-oxo-1,2-dihydroisoquinoline-7-carboxamide], the inhibition at 0.37 µM is reported as 100%. For `O=C(NO)c1ccc2c(=O)n(Cc3ccc(C(F)(F)F)cc3)c(-c3ccc4ccccc4c3)nc2c1` [Compound I-85, N-hydroxy-2-(2-naphthyl)-4-oxo-3-[4-(trifluoromethyl)benzyl]-3,4-dihydroquinazoline-7-carboxamide], the inhibition at 0.37 µM was 72.6%. `CN(C)S(=O)(=O)c1cccc(-c2cccc(CCn3cnc4ccc(C(=O)NO)cc4c3=O)c2)c1` [Compound I-309, 3-(2-{3′-[(dimethylamino)sulfonyl]biphenyl-3-yl}ethyl)-N-hydroxy-4-oxo-3,4-dihydroquinazoline-6-carboxamide] was tested, and the inhibition at 0.37 µM was 83.8%.

Same assay, conditions: compound concentration 0.412 μM, read-out: Percent Inhibition
For `O=C(NO)c1ccc2c(=O)[nH]c(COc3ccc4c(c3)OCO4)nc2c1` [Compound I-66, 2-[(1,3-benzodioxol-5-yloxy)methyl]-N-hydroxy-4-oxo-3,4-dihydroquinazoline-7-carboxamide], the inhibition at 0.412 µM was 89.5%. `CC(C)(C)c1ccc(Cn2cnc3cc(C(=O)NO)ccc3c2=O)cc1` [Compound I-87, 3-(4-tert-butylbenzyl)-N-hydroxy-4-oxo-3,4-dihydroquinazoline-7-carboxamide] gave an inhibition at 0.412 µM of 91%. With `Cc1ccccc1OCCn1ccc2ccc(C(=O)NO)cc2c1=O` [Compound I-149, N-hydroxy-2-[2-(2-methylphenoxy)ethyl]-1-oxo-1,2-dihydroisoquinoline-7-carboxamide] the inhibition at 0.412 µM was 97.3%. In the case of `O=C(NO)c1ccc2[nH]c(=O)n(Cc3ccccc3)c(=O)c2c1` [Compound I-264, 3-benzyl-N-hydroxy-2,4-dioxo-1,2,3,4-tetrahydroquinazoline-6-carboxamide], the inhibition at 0.412 µM is reported as 93%. `O=C(NO)c1ccc2ccn(Cc3ccccc3)c(=O)c2c1` [Compound I-219, 2-benzyl-N-hydroxy-1-oxo-1,2-dihydroisoquinoline-7-carboxamide] showed an inhibition at 0.412 µM of 94.1%. Work on `O=C(NO)c1ccc2c(=O)[nH]c(COc3ccccc3Cl)nc2c1` [Compound I-144, 2-[(2-chlorophenoxy)methyl]-N-hydroxy-4-oxo-3,4-dihydroquinazoline-7-carboxamide] yielded an inhibition at 0.412 µM of 81.2%. `CS(=O)(=O)c1ccccc1OCCCn1ccc2ccc(C(=O)NO)cc2c1=O` [Compound I-51, N-hydroxy-2-{3-[2-(methylsulfonyl)phenoxy]propyl}-1-oxo-1,2-dihydroisoquinoline-7-carboxamide] was tested, and the inhibition at 0.412 µM was 96.2%. Work on `Cc1nc(-c2ccccc2OCCn2ccc3ccc(C(=O)NO)cc3c2=O)cs1` [Compound I-27, N-hydroxy-2-{2-[2-(2-methyl-1,3-thiazol-4-yl)phenoxy]ethyl}-1-oxo-1,2-dihydroisoquinoline-7-carboxamide] yielded an inhibition at 0.412 µM of 98.6%. Work on `O=C(NO)c1ccc2c(=O)n(-c3ccccc3)c(=O)[nH]c2c1` [Compound I-195, N-hydroxy-2,4-dioxo-3-phenyl-1,2,3,4-tetrahydroquinazoline-7-carboxamide] yielded an inhibition at 0.412 µM of 16.1%. Molecule `O=C(NO)c1ccc2ncn(Cc3ccccc3C(F)(F)F)c(=O)c2c1` [Compound I-36, N-hydroxy-4-oxo-3-[2-(trifluoromethyl)benzyl]-3,4-dihydroquinazoline-6-carboxamide] has an inhibition at 0.412 µM of 91.8%. With `O=C(NO)c1ccc2ccn(CCOc3ccccc3-n3cccc3)c(=O)c2c1` [Compound I-71, N-hydroxy-1-oxo-2-{2-[2-(1H-pyrrol-1-yl)phenoxy]ethyl}-1,2-dihydroisoquinoline-7-carboxamide] the inhibition at 0.412 µM was 98.5%. In the case of `O=C(NO)c1ccc2ncn(Cc3nc4ccccc4s3)c(=O)c2c1` [Compound I-67, 3-(1,3-benzothiazol-2-ylmethyl)-N-hydroxy-4-oxo-3,4-dihydroquinazoline-6-carboxamide], the inhibition at 0.412 µM is reported as 49.2%. For `O=C(NO)c1ccc2ccn(CCCOc3ccc(-c4csnn4)cc3)c(=O)c2c1` [Compound I-90, N-hydroxy-1-oxo-2-{3-[4-(1,2,3-thiadiazol-4-yl)phenoxy]propyl}-1,2-dihydroisoquinoline-7-carboxamide], the inhibition at 0.412 µM was 97.7%. `CC(C)(C)OC(=O)N1CCC(NCc2nc3cc(C(=O)NO)ccc3c(=O)[nH]2)CC1` [Compound I-56, tert-butyl 4-[({7-[(hydroxyamino)carbonyl]-4-oxo-3,4-dihydroquinazolin-2-yl}methyl)amino]piperidine-1-carboxylate] was tested, and the inhibition at 0.412 µM was 69%. `O=C(NO)c1ccc2ncn(Cc3cccc(F)c3)c(=O)c2c1` [Compound I-111, 3-(3-fluorobenzyl)-N-hydroxy-4-oxo-3,4-dihydroquinazoline-6-carboxamide] gave an inhibition at 0.412 µM of 93.5%. `O=C(NO)c1ccc2c(=O)n(-c3ccccc3)c(NCc3ccc(Cl)cc3)nc2c1` [Compound I-86, 2-[(4-chlorobenzyl)amino]-N-hydroxy-4-oxo-3-phenyl-3,4-dihydroquinazoline-7-carboxamide] showed an inhibition at 0.412 µM of 74.2%. `O=C(NO)c1ccc2ccn(CCOc3cccc(C(F)(F)F)c3)c(=O)c2c1` [Compound I-282, N-hydroxy-1-oxo-2-{2-[3-(trifluoromethyl)phenoxy]ethyl}-1,2-dihydroisoquinoline-7-carboxamide] showed an inhibition at 0.412 µM of 95.5%. In the case of `O=C(NO)c1ccc2ccn(Cc3cccc(C(F)(F)F)c3)c(=O)c2c1` [Compound I-61, N-hydroxy-1-oxo-2-[3-(trifluoromethyl)benzyl]-1,2-dihydroisoquinoline-7-carboxamide], the inhibition at 0.412 µM is reported as 95.7%. Work on `O=C(NO)c1ccc2ncn(Cc3cccc(OC(F)(F)F)c3)c(=O)c2c1` [Compound I-55, N-hydroxy-4-oxo-3-[3-(trifluoromethoxy)benzyl]-3,4-dihydroquinazoline-6-carboxamide] yielded an inhibition at 0.412 µM of 93.9%. For `O=C(NO)c1ccc2ccn(CCCOc3cccc4c3CCC4)c(=O)c2c1` [Compound I-21, 2-[3-(2,3-dihydro-1H-inden-4-yloxy)propyl]-N-hydroxy-1-oxo-1,2-dihydroisoquinoline-7-carboxamide], the inhibition at 0.412 µM was 96.1%. In the case of `O=C(NO)c1ccc2ccn(Cc3ccc4ccccc4c3)c(=O)c2c1` [Compound I-5, N-hydroxy-2-(2-naphthylmethyl)-1-oxo-1,2-dihydroisoquinoline-7-carboxamide], the inhibition at 0.412 µM is reported as 96.5%. `COc1ccc2ccc(OCc3nc4cc(C(=O)NO)ccc4c(=O)[nH]3)cc2c1` [Compound I-225, N-hydroxy-2-{[(7-methoxy-2-naphthyl)oxy]methyl}-4-oxo-3,4-dihydroquinazoline-7-carboxamide] was tested, and the inhibition at 0.412 µM was 40.3%. Work on `O=C(NO)c1ccc2ccn(Cc3cccc(OCc4ccccc4)c3)c(=O)c2c1` [Compound I-31, 2-[3-(benzyloxy)benzyl]-N-hydroxy-1-oxo-1,2-dihydroisoquinoline-7-carboxamide] yielded an inhibition at 0.412 µM of 89.5%.

Source: patent US8765773B2, “Substituted hydroxamic acids and uses thereof” (Millennium Pharmaceuticals, Inc., priority 2010, dated 2014)
